These results are taken from paper PMC10349142, “Minimal mechanistic component of HbYX-dependent proteasome activation that reverses impairment by neurodegenerative-associated oligomers” (Communications Biology, 2023).

Each structure is given as a SMILES string.

Assay [1] deals with T1, Mammalian 20S proteasome (M20S).
T1 construct: gene PSMA5; native 20S core particle purified from bovine liver; alpha7-beta7-beta7-alpha7; with Proteasome subunit beta type-1; Proteasome subunit beta type-2; Proteasome subunit beta type-3; Proteasome subunit beta type-4; Proteasome subunit beta type-5; Proteasome subunit beta type-6; Proteasome subunit beta type-7
Put plainly: fluorogenic peptide hydrolysis, activator saturation curve. The format is biochemical, Bos taurus. The text has this: fluorogenic peptide hydrolysis, activator saturation curve on Mammalian 20S proteasome (M20S)

Assay [2] addresses T2, T. acidophilum 20S proteasome (T20S) (Thermoplasma acidophilum, UniProt P25156, DEL2-12).
T2 construct: gene psmA; recombinant 20S core particle; 8xHis tag on C-terminus of beta subunit; with Proteasome subunit beta
Briefly: LFP nonapeptide hydrolysis. The format is biochemical. The conditions noted are these: 7 nM T20S; LFP substrate; pH 7.5; 45 °C; 2% DMSO.

Assay [3] addresses T1, Mammalian 20S proteasome (M20S). Briefly: fluorogenic peptide hydrolysis, activator saturation curve (Hill fit). Type of assay: biochemical, Bos taurus. Particulars: activation (gate opening); nLPnLD-AMC substrate; 0.5 nM 20S; pH 7.5; 37 °C; 2% DMSO; allosteric, alpha intersubunit pockets; read-out: Kobs. The text has this:
fluorogenic peptide hydrolysis, activator saturation curve (Hill fit) on Mammalian 20S proteasome (M20S)

The target in assay [4] is T3, T. acidophilum 20S proteasome (T20S) (Thermoplasma acidophilum, UniProt P25156, K66A).
T3 construct: gene psmA; recombinant 20S core particle; 8xHis tag on C-terminus of beta subunit; with Proteasome subunit beta
Put plainly: LFP nonapeptide hydrolysis. Particulars: 7 nM T20S; LFP substrate; pH 7.5; 45 °C; 2% DMSO. The format is biochemical.

Assay [5] concerns the target T4, T. acidophilum 20S proteasome (T20S) (Thermoplasma acidophilum, UniProt P25156).
T4 construct: gene psmA; recombinant 20S core particle; 8xHis tag on C-terminus of beta subunit; with Proteasome subunit beta
Briefly: LFP nonapeptide hydrolysis, dose response. The format is biochemical. The conditions noted are these: activation (gate opening); 7 nM T20S; LFP substrate; pH 7.5; 45 °C; 2% DMSO; allosteric, alpha intersubunit pockets.

Setting [6] is: activation; pH 7.5; 37 °C; 2% DMSO; site unknown; read-out: Kobs.

T4 sequence (P28061 9-211, stated change not applied): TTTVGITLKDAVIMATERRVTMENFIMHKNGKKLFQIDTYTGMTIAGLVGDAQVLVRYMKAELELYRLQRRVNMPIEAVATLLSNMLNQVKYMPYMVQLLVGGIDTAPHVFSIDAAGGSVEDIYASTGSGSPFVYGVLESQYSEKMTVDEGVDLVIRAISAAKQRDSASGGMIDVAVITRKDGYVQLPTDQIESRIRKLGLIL
T4 sequence (P25156 whole entry, stated change not applied): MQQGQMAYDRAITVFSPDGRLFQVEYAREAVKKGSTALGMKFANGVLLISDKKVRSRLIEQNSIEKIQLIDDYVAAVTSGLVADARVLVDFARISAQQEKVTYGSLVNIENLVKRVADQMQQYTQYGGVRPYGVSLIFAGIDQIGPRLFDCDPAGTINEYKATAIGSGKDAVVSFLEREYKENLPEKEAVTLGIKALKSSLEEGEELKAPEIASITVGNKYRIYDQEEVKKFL
T2 sequence (P25156 other isoform, or with tags, fused parts or gaps DEL2-12): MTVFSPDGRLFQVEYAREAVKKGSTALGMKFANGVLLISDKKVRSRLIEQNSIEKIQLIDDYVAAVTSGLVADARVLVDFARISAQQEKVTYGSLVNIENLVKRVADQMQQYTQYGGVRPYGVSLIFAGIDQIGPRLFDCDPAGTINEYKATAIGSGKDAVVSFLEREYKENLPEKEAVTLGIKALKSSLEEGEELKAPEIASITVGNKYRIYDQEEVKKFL
T2 sequence (P28061 9-211, stated change not applied, further chain): as the sequence (P28061 9-211, stated change not applied) above
T3 sequence (P25156 whole entry K66A): as the sequence (P25156 whole entry, stated change not applied) above, with K66A counted along it
T3 sequence (P28061 9-211, further chain): as the sequence (P28061 9-211, stated change not applied) above

In the case of `O=C1NCN(c2ccccc2)C12CCN(CCCC(c1ccc(F)cc1)c1ccc(F)cc1)CC2` [Fluspirilene], in assay [1] (setting [6]), the EC50 worked out at 2.7 µM. Still for that read-out and setting: for `CCOC(=O)[C@]1(c2ccccc2)N=C(c2ccc(OC)cc2)N(Cc2ccccc2)[C@@H]1c1ccc(NCc2ccccc2)cc1` [TCH-165] the value was 0.8 µM.

As to `CCCCC/C=C\C/C=C\C/C=C\C/C=C\CCCC(=O)Nc1ccc(O)cc1` [AM-404], the EC50 in assay [1] (read-out: Kobs; activation; pH 7.5; 37 °C; 2% DMSO; site unknown) was 12.1 µM. As to `C[C@H](NC(=O)[C@H](Cc1ccc(O)cc1)NC(=O)OCc1ccccc1)C(=O)O` [ZYA], the “no activation at 2.5 mM” value in assay [2] is on record as “ZYA did not stimulate the activity of αΔN-T20S to any extent (Fig. 2e)”; in assay [4], “it could not stimulate gate-opening in T20S-K66A to any extent (Fig. 2d)”. Moreover, in assay [3], the EC50 stood at 970 µM. The affinity result in assay [5] is given as “highly similar to its affinity for the T20S (Fig. 2b)”.
